Assays:
[1] = biological target: Boletopsis leucomelas lectin (BLL); test: Frontal affinity chromatography (FAC) on immobilized BLL lectin column; assay type: binding; conditions: for affinity of BLL for pNP glycosides (in words): pNP-sugar chain 5 μM, FIG. 3(A) right
Description: (§1) It is preferable to use the frontal affinity chromatography (FAC) method for measuring the binding constant between lectin and sugar chain.
(§2) […] each of pyridylaminated sugar chains (PA-sugar chains) is continuously poured into two buffered lectin columns at a flow rate of 0.125 ml/min. The PA-sugar chain has been diluted to the concentration (2.5 nM) which is sufficiently lower than the dissociation constant (Kd) of a lectin in a buffer solution for analysis (10 mM Tris-HCl buffer solution (pH 7.4) containing 0.8% NaCl). Elution of the PA-sugar chain from the column is detected with use of a fluorescence detector (with exciting wavelength/fluorescence wavelength: 310 nm/380 nm).
(§3) Then, the binding constant (Ka) between the sugar chain and the lectin is determined from V-V0 and Bt based on the FAC reference equation.
(§4) BLL was dissolved in 0.2M NaHCO3 buffer solution (pH 8.3) containing 0.5M NaCl, and bound with NHS-activated Sepharose (GE Healthcare Bioscience, Uppsala, Sweden) according to the operation manual of the manufacturer. The lectin-Sepharose was suspended in 10 mM Tris-HCl buffer solution (pH 7.4, TBS buffer solution) containing 0.8% NaCl, and filled in a miniature column (+2 mm×10 mm, 31.4 μl). A GSL-II lectin column was prepared in a similar manner.
(§5) A frontal affinity chromatography was carried out with use of an FAC automated analysis system (FAC-1, Shimadzu Corporation). More specifically, the lectin column prepared as described above was inserted in a stainless holder and connected to the FAC-1 system.
(§6) The flow rate and column temperature were kept at 0.125 ml/min and 25 °C, respectively. […]
(§7) Eluates of pNP-sugar chain and PA-sugar chain were monitored by measuring UV (280 nm) and fluorescence (with the exciting wavelength 310 nm and the fluorescence wave length 380 nm). A front end eluate (i.e., V-V0) was measured with respect to a standard oligosaccharide (PA-lactose). In addition, the dissociation constant (Kd) was determined from V-V0 and Bt based on the FAC reference equation. Note that the binding constant Ka is determined by the equation Ka=1/Kd.
(§8) Analysis of the concentration dependency was carried out to measure the effective ligand concentration Bt. […] Next, V-V0 (the delay of the eluted front end) was calculated in accordance with the method developed by Arata (“Application of reinforced frontal affinity chromatography and advanced processing procedure to the study of the binding property of a Caenorhabditis elegans galectin”, J Chromatogr A. 905, 337-43). A Hofstee-type plot ((V-V0) vs. (V-V0) [A]0) was created, and Bt and Kd were respectively determined from the intercept and the slope of the approximate curve. […]

[2] = biological target: Griffonia simplicifolia lectin II (GSL-II) (Griffonia simplicifolia, UniProt Q41263); test: Frontal affinity chromatography (FAC) on immobilized GSL-II lectin column; assay type: binding; conditions: for affinity of GSL-II for pNP glycosides (in words): pNP-sugar chain 5 μM, FIG. 3(A) left
Sequence of Griffonia simplicifolia lectin II (GSL-II) (Q41263 entry or part of it): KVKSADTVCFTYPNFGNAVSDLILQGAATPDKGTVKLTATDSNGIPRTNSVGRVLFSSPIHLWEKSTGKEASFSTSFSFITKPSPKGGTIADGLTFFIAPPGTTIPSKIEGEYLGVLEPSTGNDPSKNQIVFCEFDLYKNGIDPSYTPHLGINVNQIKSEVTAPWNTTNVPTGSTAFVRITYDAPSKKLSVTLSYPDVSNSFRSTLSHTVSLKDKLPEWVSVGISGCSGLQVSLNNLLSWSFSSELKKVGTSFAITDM
Description: as §1, §2, §3, §4, §5, §6, §7, §8

In the case of `CC(=O)N[C@H]1[C@@H](Oc2ccc([N+](=O)[O-])cc2)O[C@H](CO)[C@H](O)[C@@H]1O[C@@H]1O[C@H](CO)[C@H](O)[C@H](O)[C@H]1O` [Galβ1-3GalNAcα-pNP, Galβ1-3 GalNAcα-pNP], the Ka ([1]; pNP derivatives (5 μM), FAC, 25 C, TBS pH 7.4) is reported as 90000 M⁻¹ and the “affinity of BLL for pNP glycosides (in words)” value (from here on “affinity of BLL”) [1] is reported as “remarkable affinity”.
In the case of `CC(=O)N[C@H]1[C@@H](Oc2ccc([N+](=O)[O-])cc2)O[C@H](CO)[C@@H](O)[C@@H]1O` [GlcNAcα-pNP], the Kd [2] is reported as 7.14 µM, the “affinity of GSL-II for pNP glycosides (in words)” value [2] is reported as “strongest affinity” and the “affinity of BLL” value [1] is reported as “did not show remarkable affinity”.
With `CC(=O)N[C@H]1[C@H](Oc2ccc([N+](=O)[O-])cc2)O[C@H](CO)[C@@H](O)[C@@H]1O` [GlcNAcβ-pNP] the “binding relative to that of the other anomer” value ([2]; GSL-II, pNP glycosides) was 1/7, the “affinity of GSL-II for pNP glycosides (in words)” value [2] was “remarkable affinity” and the “affinity of BLL” value [1] was “did not show remarkable affinity”.
